# Patent publication US8951997B2, “Substituted isoquinoline derivative” (D. Western Therapeutics Institute, Inc., priority 2009, dated 2015)
# Counter-ions that a name gives are not always drawn.
# Key:
# [1] = tested on: mouse model of spinal cord injury; test: Motor function recovering effect on a spinal cord injury model of the mouse; format: in vivo; conditions: C57BL/6Cr mice, 3 mg/kg intraperitoneal once a day for 7 days, day 14 after operation, score 0 normal to 72 most serious, saline group 41
# Experimental: To examine the usefulness of the compound of the present invention as a therapeutic agent for spinal cord injury, the mouse model of spinal cord injury was prepared and a motor function recovering effect after spinal cord injury was investigated.
# Example 14 as a test compound was dissolved in saline and diluted to prepare a test compound solution with a predetermined concentration.
# C57BL/6Cr mice (female, body weight: around 19 g, 6 to 8 […] per group) were anesthetized by halothane inhalation. The spinal cord at the level of the eighth thoracic vertebrae was compressed with 20 g of weight for 5 minutes to prepare a spinal cord injury model, according to the method described in the document (Acta Neuropathol. 100, 13-22 (2000)). The test compound was intraperitoneally administered at a dose of 3 mg/kg once a day for 7 consecutive days from the surgery day. After 1, 4, 7, 10, and 14 days from the preparation of the spinal cord injury model, the severity of neurological dysfunction was scored by a partial modification of the performance score described in J. Neurosurg. 93 (Spine 1), 94-101(2000). The details of the behavioral score are as follows:
# Open field locomotion (rated 0 to 42)
# Toe spread (rated 0 to 5)
# Contact place response (rated 0 to 5)
# Withdrawal reflexes (rated 0 to 5 for each reflex to extension, pain, and pressure stimulations)
# Righting reflex (rated 0 to 5) […]
# [2] = tested on: rabbits (New Zealand White); test: Ocular hypotensive effect in rabbits; format: in vivo, rabbit; conditions: Oryctolagus cuniculus, topical, 0.04 mL dropped to one eye, vehicle to contralateral eye, test compound solution concentration 10 (W/V), read-out: Maximum ocular hypotensive rate
# Experimental: The compound of the present invention was administered to rabbits (New Zealand White, sex: male, 3 to 7 per group) and evaluated for its ocular hypotensive effect.
# Each test compound was dissolved in a vehicle (1.04 g of sodium dihydrogen phosphate dihydrate and 0.5 g of sodium chloride dissolved in purified water and then adjusted to pH 7.0 with sodium hydroxide to make the total amount to 100 mL) to prepare a test compound solution with a concentration of 10 (W/V).
# The intraocular pressures of the rabbits were measured using Tiolat TonoVet handheld tonometer immediately before administration of test compound. The test compound solution and the vehicle were dropped at a volume of 0.04 mL to one eye and the contralateral eye, respectively, and the intraocular pressures were measured over time in the same way as above. The rate of the intraocular pressure of the eye receiving the test compound solution to that of the eye receiving the vehicle was calculated as an ocular hypotensive rate.
structure (smiles),measurement,setting,value
"C[C@@H]1CNCCCCN1S(=O)(=O)c1ccc2cnccc2c1 [Example 14, (R)-6-(2-methyl-1,4-diazocan-1-ylsulfonyl)isoquinoline dihydrochloride]",neurological dysfunction score,[1],33
same,inhibition in vivo at 10 %,[2],≥ 15%
